Source: patent US10292396B2, “Methods for assessing repellant quality of organic materials and methods and compositions for repelling arthropods” (priority 2011, dated 2019)

How the values were obtained:
Aedes aegypti [1] = experiment: protection time assay for mosquito repellency; type: in vivo; conditions: standardized to 25 μmol/cm^2; assigned, not measured
Experimental: In two recent studies, 34 N-acylpiperdine and 38 carboxamide mosquito repellent candidates were synthesized and compared for their effectiveness. […] The mode of repellency for all of these compounds is unknown. As the N-acylpiperdines and some of the carboxamides are larger and likely have a lower vapor pressure than DEET, it is possible that the increased protection times of these compounds is due to a slower evaporation rate.
As these odors were tested using different approaches, a single unit of measure was needed to standardize them for training. Since the largest proportion of odors was measured in protection time, all odors were converted into this single standard of protection time in days to match with the Katritzky data at a concentration of 25 μmol/cm^2. Picaridin, which is believed to have a similar protection to DEET, was given the same protection time as DEET (17.5 days). […] While this is a very rough approximation, it is sufficiently accurate for training.

acetylcholoinesterase = acetylcholoinesterase (Homo sapiens, UniProt P22303); conditions: in humans, recent study; cited from earlier work
Aedes aegypti [2] = conditions: 25 μmol/cm^2, Katritzky data; cited from earlier work
[3] = in vivo; cited from earlier work
[4] = tested on: trichoid sensillum housed odor receptor, which is also activated by DEET; conditions: compared with DEET; cited from earlier work
insects = conditions: in vivo; cited from earlier work

Sequence of acetylcholoinesterase (P22303 32-614): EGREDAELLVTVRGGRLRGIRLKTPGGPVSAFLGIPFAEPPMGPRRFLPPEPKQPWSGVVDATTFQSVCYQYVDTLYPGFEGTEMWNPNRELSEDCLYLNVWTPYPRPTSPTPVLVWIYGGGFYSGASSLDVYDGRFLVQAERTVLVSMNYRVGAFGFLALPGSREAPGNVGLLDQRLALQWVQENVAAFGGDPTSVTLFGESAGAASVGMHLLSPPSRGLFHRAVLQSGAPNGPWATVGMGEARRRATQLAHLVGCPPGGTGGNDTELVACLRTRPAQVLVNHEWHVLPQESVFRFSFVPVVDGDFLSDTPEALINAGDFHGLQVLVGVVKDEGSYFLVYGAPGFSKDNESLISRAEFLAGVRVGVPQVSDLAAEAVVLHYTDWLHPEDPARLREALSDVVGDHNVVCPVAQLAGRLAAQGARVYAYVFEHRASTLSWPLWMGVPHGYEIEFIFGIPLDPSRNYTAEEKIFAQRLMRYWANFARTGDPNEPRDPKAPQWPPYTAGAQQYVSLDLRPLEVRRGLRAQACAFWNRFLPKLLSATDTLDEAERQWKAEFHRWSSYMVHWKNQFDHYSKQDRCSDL

Compound: CC1C(=O)CC2(C(C)C)CC12 (stereo not drawn) [beta-thujone]
- protection time given for training (same as DEET, very rough approximation) (Aedes aegypti [1]): 17.5 days

Compound: CCN(CC)C(=O)c1cccc(C)c1 [DEET, N,N-diethyl-3-methylbenzamide]
- inhibition of acetylcholinesterase (acetylcholoinesterase): inhibit
- protection time (Aedes aegypti [2]): 17.5 days
- irritation [3]: act as an irritant

Compound: C=CC(C)(O)CCC=C(C)C (stereo not shown) [linalool]
- protection time given for training (same as DEET, very rough approximation) (Aedes aegypti [1]): 17.5 days
- activation of DEET-activated odor receptor / DEET receptive neuron [4]: more strongly than DEET

Compound: CCC(C)OC(=O)N1CCCCC1CCO (stereo not shown) [Icaridin]
- effectiveness at repelling insects compared with DEET (insects): as effective as DEET
- protection time given for training (same as DEET, very rough approximation) (Aedes aegypti [1]): 17.5 days
- irritation [3]: less irritating than DEET

Compound: CC(C)[C@]12CC(=O)[C@H](C)[C@H]1C2 [alpha-thujone]
- protection time given for training (same as DEET, very rough approximation) (Aedes aegypti [1]): 17.5 days

Compound: CC(C)[C@]12CC(=O)[C@H](C)[C@H]1C2 [thujone]
- activation of DEET-activated odor receptor / DEET receptive neuron [4]: more strongly than DEET

Compound: CC12CCC(CC1)C(C)(C)O2 [Eucalyptol]
- protection time given for training (same as DEET, very rough approximation) (Aedes aegypti [1]): 17.5 days
- activation of DEET-activated odor receptor / DEET receptive neuron [4]: more strongly than DEET
